Results: patent US12612388B2, “Receptor-interacting protein 1 inhibitors including piperazine heterocyclic amide ureas” (SIRONAX LTD., priority 2020, dated 2026)

These molecules were tested on HT-29 cells (assay: Cellular RIP1 inhibitory activity: necroptosis of HT-29 cells induced by TNF-α/SMAC mimetic/zVAD-FMK, CellTiter-Glo viability). Conditions: Homo sapiens; HT-29 cells; TNF-α 10 ng/ml, SMAC mimetic 6 μM, zVAD-FMK 10 μM; 20 hours; geometric mean, 10 points, duplicates; read-out: EC50 (Cell activity; Necrosis or Necroptosis Inhibitory Activity).
Format: cell-based
Procedure, shortened: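 HT-29 cells (~5,000/well) in FBS-free McCoy's 5A were driven into necroptosis with TNF-α (10 ng/ml), SMAC mimetic (6 μM) and zVAD-FMK (10 μM) alongside 10-point 1:3 compound dilutions for 20 h at 37 °C. Viability measured by CellTiter-Glo luminescence; geometric mean EC50 from duplicate dose-responses.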

SMILES | EC50 [µM]
COC1CN(C(=O)c2nc(N3CCN(C(=O)N4N=CC[C@H]4c4cncc(F)c4)CC3)ncc2Cl)C1 [Compound 64, (S)-(5-chloro-2-(4-(5-(5-fluoropyridin-3-yl)-4,5-dihydro-1H-pyrazole-1-carbonyl)piperazin-1-yl)pyrimidin-4-yl)(3-methoxyazetidin-1-yl)methanone] | 0.1 to 1
CN(C(=O)c1nc(N2CCN(C(=O)N3N=CC[C@H]3c3cc(F)cc(F)c3)CC2)ncc1F)C1CC1 [Compound 9, (S)—N-cyclopropyl-2-(4-(5-(3,5-difluorophenyl)-4,5-dihydro-1H-pyrazole-1-carbonyl)piperazin-1-yl)-5-fluoro-N-methylpyrimidine-4-carboxamide] | 0.0001 to 0.1
CN(O)C(=O)c1nc(N2CCN(C(=O)N3N=CC[C@H]3c3cc(F)cc(F)c3)CC2)ncc1F [Compound 20, (S)-2-(4-(5-(3,5-difluorophenyl)-4,5-dihydro-1H-pyrazole-1-carbonyl)piperazin-1-yl)-5-fluoro-N-hydroxy-N-methylpyrimidine-4-carboxamide] | 0.0001 to 0.1
N#C[C@@H]1CCN(C(=O)c2nc(N3CCN(C(=O)N4N=CC[C@H]4c4cc(F)cc(F)c4)CC3)ncc2F)C1 [Compound 16, (3R)-1-(2-(4-(5-(3,5-difluorophenyl)-4,5-dihydro-1H-pyrazole-1-carbonyl)piperazin-1-yl)-5-fluoropyrimidine-4-carbonyl)pyrrolidine-3-carbonitrile] | 0.0001 to 0.1
